Data taken from publication doi:10.1101/396440v2, “Large-scale chemical-genetics yields new Mycobacterium tuberculosis inhibitor classes” (biorxiv, 2019).

Assays:
EfpA = biological target: T1, EfpA (Mycolicibacterium smegmatis, UniProt A0QVL8); test: ethidium bromide efflux (fluorescence) in M. smegmatis cells; type: cell-based
T1 construct: gene MSMEG_2619; native efflux pump in intact M. smegmatis cells; ethidium bromide efflux read-out

Mtb's efpA homolog = Mtb's efpA homolog (Mycobacterium tuberculosis, UniProt P9WJY5); details: high-affinity interaction lost on efpA deletion
Chain of Mtb's efpA homolog (P9WJY5 whole entry): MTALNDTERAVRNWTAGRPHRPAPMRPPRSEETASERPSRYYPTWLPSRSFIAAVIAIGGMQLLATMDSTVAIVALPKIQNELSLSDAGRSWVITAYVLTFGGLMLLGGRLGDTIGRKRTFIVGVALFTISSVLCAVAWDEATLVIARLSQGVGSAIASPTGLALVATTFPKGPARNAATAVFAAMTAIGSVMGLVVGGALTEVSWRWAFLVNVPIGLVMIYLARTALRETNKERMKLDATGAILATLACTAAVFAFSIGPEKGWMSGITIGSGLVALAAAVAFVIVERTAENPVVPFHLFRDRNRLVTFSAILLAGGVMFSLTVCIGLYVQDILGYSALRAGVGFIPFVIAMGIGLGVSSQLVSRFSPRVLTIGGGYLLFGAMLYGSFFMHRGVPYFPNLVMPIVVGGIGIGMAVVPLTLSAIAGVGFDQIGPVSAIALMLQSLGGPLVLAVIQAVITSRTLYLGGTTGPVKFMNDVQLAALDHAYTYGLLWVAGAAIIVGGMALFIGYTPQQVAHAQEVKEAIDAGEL

Mtb DNA gyrase = biological target: T2, Mtb DNA gyrase (Mycobacterium tuberculosis, UniProt P9WG45+P9WG47); test: DNA supercoiling/decatenation inhibition, agarose gel; type: biochemical
T2 construct: gene gyrA; in vitro DNA gyrase; source details in supplement
T2 sequence (P9WG45 whole entry): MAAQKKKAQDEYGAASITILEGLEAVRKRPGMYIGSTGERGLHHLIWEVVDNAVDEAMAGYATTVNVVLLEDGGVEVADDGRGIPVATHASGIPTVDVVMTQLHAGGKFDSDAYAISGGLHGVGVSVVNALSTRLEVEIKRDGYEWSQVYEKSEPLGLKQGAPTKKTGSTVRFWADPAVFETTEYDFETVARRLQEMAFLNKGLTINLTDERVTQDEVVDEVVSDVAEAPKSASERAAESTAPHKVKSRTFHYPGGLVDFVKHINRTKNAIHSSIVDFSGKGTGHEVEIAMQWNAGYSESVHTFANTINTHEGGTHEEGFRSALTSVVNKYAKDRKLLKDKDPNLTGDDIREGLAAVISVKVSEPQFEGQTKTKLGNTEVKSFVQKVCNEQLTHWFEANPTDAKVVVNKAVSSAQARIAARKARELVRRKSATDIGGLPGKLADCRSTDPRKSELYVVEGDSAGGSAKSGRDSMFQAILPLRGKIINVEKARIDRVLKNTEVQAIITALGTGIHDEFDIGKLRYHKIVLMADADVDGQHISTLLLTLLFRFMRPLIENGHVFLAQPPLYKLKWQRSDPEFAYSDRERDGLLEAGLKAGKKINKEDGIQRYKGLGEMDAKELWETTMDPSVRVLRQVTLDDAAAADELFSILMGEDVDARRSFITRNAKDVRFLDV
T2 sequence (P9WG47 2-838): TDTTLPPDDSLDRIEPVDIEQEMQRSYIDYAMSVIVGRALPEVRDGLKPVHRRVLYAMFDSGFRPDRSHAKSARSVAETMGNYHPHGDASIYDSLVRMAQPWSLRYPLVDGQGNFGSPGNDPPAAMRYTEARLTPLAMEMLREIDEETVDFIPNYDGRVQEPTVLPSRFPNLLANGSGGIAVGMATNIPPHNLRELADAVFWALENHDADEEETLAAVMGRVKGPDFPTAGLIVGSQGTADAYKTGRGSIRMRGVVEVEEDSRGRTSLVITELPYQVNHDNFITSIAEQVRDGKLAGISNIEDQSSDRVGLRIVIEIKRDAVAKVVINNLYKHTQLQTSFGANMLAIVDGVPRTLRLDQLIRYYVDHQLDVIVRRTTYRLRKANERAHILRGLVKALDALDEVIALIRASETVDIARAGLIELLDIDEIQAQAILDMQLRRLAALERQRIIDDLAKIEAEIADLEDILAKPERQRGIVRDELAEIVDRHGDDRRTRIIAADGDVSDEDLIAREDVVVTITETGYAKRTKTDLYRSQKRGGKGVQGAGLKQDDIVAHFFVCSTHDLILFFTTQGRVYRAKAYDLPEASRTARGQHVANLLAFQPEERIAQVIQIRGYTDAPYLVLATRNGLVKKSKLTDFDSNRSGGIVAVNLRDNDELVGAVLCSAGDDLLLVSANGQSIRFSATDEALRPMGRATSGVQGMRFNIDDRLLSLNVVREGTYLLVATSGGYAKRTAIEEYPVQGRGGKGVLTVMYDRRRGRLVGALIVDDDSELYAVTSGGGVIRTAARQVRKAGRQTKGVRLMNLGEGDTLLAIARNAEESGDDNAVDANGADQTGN

Structure (SMILES) | IC50 (EfpA) | interaction with M. smegmatis efpA deletion strain complemented with Mtb efpA (Mtb's efpA homolog) | DNA supercoiling/decatenation inhibition, agarose gel (Mtb DNA gyrase)
CC(C)=CC1C(C(=O)Nc2ccc(Br)cn2)C1(C)C (mixture of isomers) [BRD-8000] | 38 µM | – | –
CC(C)=C[C@@H]1[C@@H](C(=O)Nc2cccc(Br)n2)C1(C)C [(R,R)-trans isomer of BRD-8000.2] | 500 µM | – | –
CC(C)=C[C@H]1[C@H](C(=O)Nc2cccc(Br)n2)C1(C)C [BRD-8000.2] | 15 µM | This highaffinity interaction is restored by episomal complementation of Mtb’s efpA homolog | –
O=C1c2ccccc2-n2c1nc1ccccc1c2=O [tryptanthrin] | – | – | we validated it to be a DNA gyrase inhibitor
